For one series, the system named is CAT. As to the kind of experiment: mRNA expression (Real-Time PCR) of CAT. The class given is cell-based, human. To be noted: HCT116, TSC 1 µM, after the first 12 h. As for the experimental part:
The HCT116 cells were seeded in 3 cm Petri dishes (Nunc) at a density of 0.5·10^6 cells/well and incubated overnight. Next, the medium was removed and solutions of TSC (1 μM) and DOX (5 μM) were added. After 12 or 24 h, total RNA was isolated from the cells using TRIzol Reagent (Ambion) according to the manufacturer’s instructions. cDNA synthesis was performed with 5 μg of total RNA using a GoScript™ Reverse Transcriptase kit (Promega) and Oligo(dT)23 Primers (Sigma). The Real-Time PCR was performed with a CTX96 Touch™ Real-Time PCR Detection System (Biorad) in a 20 μL reaction volume. The reaction consisted of PowerUp™ SYBR® Green Master Mix (Applied Biosystems), a primer pair mix (0.5 μM each) and 1 μL of cDNA. All primer pair sequences were purchased from Sigma-Aldrich and are listed in Supplementary Table 2. The experiment was performed under the following conditions: initial denaturation at 95° C for 120 sec; followed by 40 denaturation cycles at 95° C, 15 sec; annealing (primer-specific temperature for 30 sec) and extension at 72° C for 60 sec. Data was analyzed based on a comparison of the expression of the target genes to a reference gene – β-actin, using the 2^–ΔΔCT method. The experiments were performed at least three times.
In general terms: Real-time PCR tracks product formation cycle by cycle.

A further series relates to NHDF. Also noted: method as in PMID 25329549. To be noted: 96 h incubation, MTS; cited from earlier work.
The test system of a further series is MCF-7. Description: MTS antiproliferative assay, MCF-7 (with or without added metal ions). It counts as cell-based, human. Summed up:
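Cells seeded at 3,500/well, left 24 h at 37°C, then exposed to compounds for 96 h, optionally with 20 µM CuSO4, FeSO4 or FeCl3 added. Viability by MTS absorbance at 490 nm after 1 h; IC50 taken as concentration reducing proliferation to 50% of untreated control.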
A general note: Tetrazolium dyes change colour on reduction, which living cells bring about.

For a further series, the system named is Ndrg1. Description: mRNA expression (Real-Time PCR) of Ndrg1. The class given is cell-based, human. To be noted: HCT116, TSC 1 µM, 12 h.
For another series, the system named is calf-thymus DNA (CT-DNA). As to the kind of experiment: Intercalation, absorption spectra with CT-DNA. It counts as binding. Summed up: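 Compounds (25, 12.5, 6 and 3 µM, from DMSO stock) incubated with 18 µM CT-DNA in 10 mM Tris-HCl pH 7.9 for 1.5 h at 37 °C. UV-vis absorption spectra recorded over 200–500 nm; CT-DNA concentration set from A260 using ε 6600 M^–1cm^–1.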

The subject of a further series is HCT116. Also noted: method as in PMID 25329549. Conditions: 96 h incubation, MTS; cited from earlier work.

The structures appear in SMILES notation. Read-outs that look alike come from different tables or passages of the source.

As usually defined, the IC50 is the concentration at which inhibition is half-maximal.

For `S=C(NN=C(c1ccccn1)c1ccccn1)N1CCN(c2ccccc2)CC1` [Compound 3a], the “mRNA expression of CAT” value in the series with CAT was “higher”. In addition, the 50% inhibitory concentration (IC50) with NHDF is 1.73 ± 0.71 nM; with MCF-7 (96 h, 20 µM CuSO4 added, read-out: Activity - IC50 MCF-7+ Cu^2+) it was 1.55 ± 0.55 nM; with MCF-7 (96 h, 20 µM FeCl3 added, read-out: Activity - IC50 MCF-7+ Fe^3+), 8.96 ± 1.81 nM; in the series on MCF-7 (96 h incubation, MTS, read-out: Activity - IC50 MCF-7), 12 ± 2.04 nM; in the series with HCT116, 0.81 ± 0.13 nM. The “improvement in cytotoxicity after interacting with Cu^2+” value with MCF-7 (MCF-7 cells, 20 µM CuSO4) is reported as “eight-fold”. In addition, in the series on Ndrg1, the “mRNA expression of Ndrg1” value was “significant increase”. Also, the “% hypochromism” value in the series on calf-thymus DNA (CT-DNA) (bound to CT-DNA) is on record as 28.2%. The Changes in absorbance result with calf-thymus DNA (CT-DNA) (bound to CT-DNA) is “hypochromism”. The same compound came in with a Δε in the series with calf-thymus DNA (CT-DNA) (bound to CT-DNA) of 4120.0 M⁻¹ cm⁻¹. In the series on calf-thymus DNA (CT-DNA) (wavelengths of maximum absorption, compound alone vs DNA-bound), the blue/red shift stood at 5 nm.

The record behind these values is PMC5915149, “The role of oxidative stress in activity of anticancer thiosemicarbazones” (Oncotarget, 2018).
